The nature of data set [1]: Peroxidase activity, H2O2-dependent oxidation of ABTS. The following applies: C7 with 29 units/ml bovine liver catalase, 10 mM H2O2. The format is biochemical. The protocol: Peroxidase activity was assayed by monitoring the hydrogen peroxide-dependent oxidation of 2,2′-azino-bis(3-ethylbenzthiazoline-6) sulfonic acid (ABTS) spectrophotometrically. Standard assay mixtures consisted of 50 mM sodium phosphate, pH 8.1, 0.9% sodium chloride, 0.5 mM ABTS, and H2O2 and salen manganese complex as indicated. Where indicated, 50 mM sodium phosphate buffers of pH 6.0 or pH 7.1 were substituted. Assays were conducted at 27±0.2° C. ABTS oxidation was monitored at 740 or 500 nm to eliminate interference by the salen manganese complexes, many of which absorb in the vicinity of the λmax of oxidized ABTS, and to avoid absorbance values that exceeded the linear range of the spectrophotometer. The amount of oxidized ABTS was estimated using an Δε740 of 20,300 M^−1cm^−1 or an Δε500 of 3400 M^−1cm^−1 calculated based upon the published molar extinction coefficient oat 405 nm (36,800).
Compounds were assayed for SOD as described under Experimental procedures, using cytochrome C as acceptor. The concentration of each compound showing half-maximal activity in this assay is presented. Catalase and peroxidase activities were conducted as described under Experimental Procedures, with 10 μM salen manganese complex. The H2O2 concentration was 10 mM and 0.2 mM in the catalase and peroxidase assays, respectively. Where denoted, “nd” means that the assay was not performed on this compound.
Catalase and peroxidase activities were assayed as described in Example 2. Catalase assays contained 10 μM salen-manganese complex and 10 mM hydrogen peroxide. Peroxidase assays contained 10 μM salen-manganese complex and 0.2 mM hydrogen peroxide. Glucose-glucose oxidase toxicity assays were performed using human dermal fibroblasts as described in Example 2.

In another data set the test system is neurons. As to the kind of experiment: Amyloid peptide toxicity in neurons in vitro. The format is cell-based.
Data set [2] has as its system Human dermal fibroblasts (HF cells). As to the kind of experiment: Protection against t-butyl hydroperoxide toxicity in human fibroblasts (XTT). The format is cell-based. The following applies: 80 μM with 0.5 mM t-BHP. The method, then: Human dermal fibroblasts (HF cells) were obtained from the American type tissue Culture Collection at passage 1 and cultured and propagated in a medium (HF medium) consisting of Dulbecco's Modified Eagle's Medium with 4.5 g/l D-glucose, 10% calf serum 4 mM glutamine, 50 units/ml penicillin, and 50 μg/ml streptomycin in a 37° C. humidified incubator equilibrated with 5% CO2. Cells were used at passages 5 or 6 for experiments. For cell protection assays, HF cells were seeded at a density of about 15,000 cells per cm2 onto 96-well culture plates and allowed to grow to confluence. […] After 2 hr., the absorbance at 490 nm was measured in a BioRad (Richmond, Calif.) Model 3550 plate-reader, using a reference wavelength of 655 nm. […] Absorbance measurements for blank wells, containing HF medium and XTT reagent but no cells, were also determined. […] Fresh HF medium was then added and cell viability assessed using the XTT reagent as described above. […]
Cell protection assays were performed as described under Experimental Procedures with salen-manganese complexes administered at the indicated concentrations and t-BHP at 0.5 mM. Cell viability was assessed using the XTT reagent as described and is expressed as the absorbance at 490 nm uncorrected for blank. […]
In general terms: Formazan colour is commonly taken as a measure of viable cells.

Data set [3] deals with Isolated Iron-overloaded Rat Hearts. As to the kind of experiment: Isolated iron-overloaded rat hearts submitted to ischemia and reperfusion. The protocol: Rats received an intramuscular injection of 0.25 ml of an iron-dextran solution (100 g iron hydroxide, 99 g dextran, water up to 11) every third day during a 5-week period to achieve a significant iron overload in cardiac tissue. At the end of this treatment, rats were anesthetized with sodium pentobarbital (40 mg/kg) and heparin (1,000 IU/kg) was administered via a femoral vein. Hearts were then removed and rapidly perfused through the aorta according to the technique described by Langendorff [Langendorff, O., Pflügers Arch. 61: 291, 1895] at a constant flow rate of 11 ml/minute. […] At the end of this period, systolic and diastolic ventricular pressures and heart beat rate (HR) were recorded through a pressure transducer linked to the ventricular balloon. Left Ventricular Developed Pressure (LVDP) was calculated by the difference between systolic and diastolic pressure and the product HR×LVDP was taken as an index of oxygen consumption. […] During this 15 minute reperfusion, heart rate, and diastolic and systolic pressures were monitored. Early ventricular fibrillations were analyzed 1 min. after the start of the reperfusion. […]
Mitochondria were classified into Type A (normal), Type B (swollen, unbroken), and Type C (ruptured membranes). […] The results are expressed as percentages.

Data set [4] concerns dopaminergic neurons in mouse striatum. In words: 6-OHDA in mice, 3H-mazindol binding in striatal homogenates. The format is in vivo. The following applies: C7 4×66 mg/kg; 6-OHDA 50 μg i.c.v. The protocol: 6-OHDA in mice. Adult male CFW mice were anesthetized with ketamine and rumpun, and immobilized in a stereotaxic device. 6-OHDA, as the hydrobromide salt, was dissolved in normal saline with 1% ascorbate, and 50 μg was administered in lateral ventricle by means of a 10 μl Hamilton syringe. […] Animals were sacrificed 7 days later, and neuronal pathology was assessed by measuring ^3H-mazindol binding in striatal homogenates.

For `[Cl][Mn]1[O]c2ccccc2C=NCCN=Cc2ccccc2[O]1` [Compound C7], the “total ABTS oxidized in the presence of added catalase” value in data set [1] came out at 18 µM. Also, the “protection of neurons against amyloid peptide toxicity” value in the data set on neurons is given as “protect neurons against amyloid peptide toxicity”. The “reduced viability at 80 μM relative to 40 μM together with t-BHP” value in data set [2] is “possible synergistic toxicity with t-BHP”. The “protection of hearts from ischemia/reoxygenation damage, functionally and structurally” value in data set [3] (C7 50 μM) was “effectively protected hearts”. Moreover, the “Mitochondria Type B (swollen, unbroken)” value in data set [3] (electron microscopy after 15 minute reperfusion) is listed as 15.2#□ %. For the same compound, in data set [4], the “effect on 6-OHDA-induced decrease in mazindol binding, contralateral striatum” value is given as “complete protection” and the “effect on 6-OHDA-induced decrease in mazindol binding, ipsilateral striatum” value was “significant reduction”.

Source of the values: patent US6900198B2, “Synthetic catalytic free radical scavengers useful as antioxidants for prevention and therapy of disease” (Eukarion, Inc., priority 1995, dated 2005).
